From paper PMC7827406, “Structure–Activity Relationship (SAR) Study of Spautin-1 to Entail the Discovery of Novel NEK4 Inhibitors” (International Journal of Molecular Sciences, 2021)
Like-named read-outs stand apart in the source and are kept apart here.

Legend:
Experiment in all cases: biochemical
Design in all cases: Eurofins KinaseProfiler full panel at Km ATP, residual kinase activity (%) relative to DMSO
[1] = molecular target: CDK6/cyclinD3(h) (Homo sapiens, UniProt Q00534)
How it was run: (§1)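 Radiometric kinase activity assays were run with ATP at Km and compounds at 10 µM, and remaining activity (%) was reported. A separate competitive binding screen measured DNA-tagged kinase displaced from immobilized active-site ligands by qPCR, giving percent kinase still bound at 10 µM compound in DMSO.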

[2] = molecular target: T1, MEKK2(h) (Homo sapiens, UniProt Q9Y2U5)
T1 construct: gene MAP3K2
T1 sequence (Q9Y2U5 1-619): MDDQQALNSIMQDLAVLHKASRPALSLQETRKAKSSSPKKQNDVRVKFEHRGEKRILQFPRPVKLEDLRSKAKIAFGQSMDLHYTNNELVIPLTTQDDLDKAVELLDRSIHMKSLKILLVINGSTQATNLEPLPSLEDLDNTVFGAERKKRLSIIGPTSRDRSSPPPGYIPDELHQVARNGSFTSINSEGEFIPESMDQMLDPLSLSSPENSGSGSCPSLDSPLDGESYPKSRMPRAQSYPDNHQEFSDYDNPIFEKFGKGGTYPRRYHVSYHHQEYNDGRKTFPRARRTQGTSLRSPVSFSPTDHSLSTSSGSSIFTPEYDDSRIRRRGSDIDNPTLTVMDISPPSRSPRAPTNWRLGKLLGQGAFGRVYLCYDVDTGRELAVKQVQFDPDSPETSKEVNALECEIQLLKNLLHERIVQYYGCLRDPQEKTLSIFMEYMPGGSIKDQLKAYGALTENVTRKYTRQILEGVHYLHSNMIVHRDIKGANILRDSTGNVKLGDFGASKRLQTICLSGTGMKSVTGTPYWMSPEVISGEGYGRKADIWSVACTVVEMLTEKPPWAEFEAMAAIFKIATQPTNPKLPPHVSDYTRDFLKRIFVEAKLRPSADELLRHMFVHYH
How it was run: as §1

[3] = molecular target: T2, IKKβ(h) (Homo sapiens, UniProt O14920)
T2 construct: gene IKBKB
T2 sequence (O14920 1-756): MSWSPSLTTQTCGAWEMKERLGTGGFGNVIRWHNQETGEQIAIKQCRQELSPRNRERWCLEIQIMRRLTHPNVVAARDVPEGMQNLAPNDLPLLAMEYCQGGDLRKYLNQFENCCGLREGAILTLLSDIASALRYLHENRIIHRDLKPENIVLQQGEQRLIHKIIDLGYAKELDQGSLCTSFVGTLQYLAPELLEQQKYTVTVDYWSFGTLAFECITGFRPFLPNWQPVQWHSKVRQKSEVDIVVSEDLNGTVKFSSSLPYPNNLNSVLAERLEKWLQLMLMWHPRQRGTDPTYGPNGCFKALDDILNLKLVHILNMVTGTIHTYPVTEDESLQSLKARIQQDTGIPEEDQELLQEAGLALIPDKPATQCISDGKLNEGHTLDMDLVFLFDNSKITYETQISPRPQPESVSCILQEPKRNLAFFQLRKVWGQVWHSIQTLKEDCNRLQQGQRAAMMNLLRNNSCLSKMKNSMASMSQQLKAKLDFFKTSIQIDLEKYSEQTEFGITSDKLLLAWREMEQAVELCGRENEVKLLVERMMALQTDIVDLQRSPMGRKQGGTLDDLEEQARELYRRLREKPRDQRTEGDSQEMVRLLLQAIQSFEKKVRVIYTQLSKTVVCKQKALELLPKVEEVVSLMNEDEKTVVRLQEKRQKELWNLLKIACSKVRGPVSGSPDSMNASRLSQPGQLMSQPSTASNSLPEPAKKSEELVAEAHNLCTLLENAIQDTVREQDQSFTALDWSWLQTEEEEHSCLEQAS
How it was run: as §1

[4] = molecular target: T3, TrkA(h) (Homo sapiens, UniProt P04629)
T3 construct: gene NTRK1
T3 sequence (P04629 whole entry): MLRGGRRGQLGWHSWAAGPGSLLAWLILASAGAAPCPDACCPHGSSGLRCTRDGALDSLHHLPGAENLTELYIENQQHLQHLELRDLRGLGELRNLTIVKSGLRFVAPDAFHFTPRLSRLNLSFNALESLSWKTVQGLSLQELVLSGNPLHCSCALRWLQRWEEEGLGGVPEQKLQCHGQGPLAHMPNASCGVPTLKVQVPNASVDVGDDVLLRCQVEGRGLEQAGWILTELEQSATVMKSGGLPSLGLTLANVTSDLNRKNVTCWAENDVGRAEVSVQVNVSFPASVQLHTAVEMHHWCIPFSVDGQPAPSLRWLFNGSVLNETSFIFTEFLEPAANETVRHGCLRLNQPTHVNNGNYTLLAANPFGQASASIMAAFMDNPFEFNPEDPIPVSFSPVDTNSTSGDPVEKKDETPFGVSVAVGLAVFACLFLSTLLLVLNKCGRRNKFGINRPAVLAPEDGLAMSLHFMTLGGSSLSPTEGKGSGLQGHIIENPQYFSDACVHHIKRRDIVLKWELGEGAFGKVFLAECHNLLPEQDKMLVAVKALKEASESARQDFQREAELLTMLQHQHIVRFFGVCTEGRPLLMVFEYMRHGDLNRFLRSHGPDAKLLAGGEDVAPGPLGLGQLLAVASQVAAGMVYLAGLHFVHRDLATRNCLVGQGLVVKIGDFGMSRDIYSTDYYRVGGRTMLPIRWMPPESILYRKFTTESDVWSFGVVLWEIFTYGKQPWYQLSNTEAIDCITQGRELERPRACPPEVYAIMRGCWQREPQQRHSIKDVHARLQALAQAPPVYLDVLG
How it was run: as §1

[5] = molecular target: SRPK2(h) (Homo sapiens, UniProt P78362)
Sequence of SRPK2(h) (P78362 whole entry): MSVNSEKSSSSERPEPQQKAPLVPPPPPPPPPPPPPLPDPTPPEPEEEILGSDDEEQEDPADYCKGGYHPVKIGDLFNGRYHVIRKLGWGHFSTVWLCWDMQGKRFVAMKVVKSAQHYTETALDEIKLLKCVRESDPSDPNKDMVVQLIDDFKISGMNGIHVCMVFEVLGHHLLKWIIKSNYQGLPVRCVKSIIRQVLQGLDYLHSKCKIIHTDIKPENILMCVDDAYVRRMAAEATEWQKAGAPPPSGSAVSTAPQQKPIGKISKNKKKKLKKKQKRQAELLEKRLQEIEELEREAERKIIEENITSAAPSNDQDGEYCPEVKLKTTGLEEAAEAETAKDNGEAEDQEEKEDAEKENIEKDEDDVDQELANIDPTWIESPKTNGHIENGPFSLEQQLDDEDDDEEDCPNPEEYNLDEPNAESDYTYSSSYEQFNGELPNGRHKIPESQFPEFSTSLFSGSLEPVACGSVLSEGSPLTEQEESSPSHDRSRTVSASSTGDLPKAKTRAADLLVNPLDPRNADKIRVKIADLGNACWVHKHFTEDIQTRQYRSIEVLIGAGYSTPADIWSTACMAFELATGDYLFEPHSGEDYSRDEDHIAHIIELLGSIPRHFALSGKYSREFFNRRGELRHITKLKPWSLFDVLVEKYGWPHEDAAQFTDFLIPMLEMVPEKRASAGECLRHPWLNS
How it was run: as §1

[6] = read-out: Residual activity (%) 5ay
[7] = read-out: Residual activity (%) Spautin-1 5aa
[8] = read-out: Residual activity (%) 5at
[9] = read-out: Residual activity (%) 5as

Sequence of CDK6/cyclinD3(h) (Q00534 whole entry): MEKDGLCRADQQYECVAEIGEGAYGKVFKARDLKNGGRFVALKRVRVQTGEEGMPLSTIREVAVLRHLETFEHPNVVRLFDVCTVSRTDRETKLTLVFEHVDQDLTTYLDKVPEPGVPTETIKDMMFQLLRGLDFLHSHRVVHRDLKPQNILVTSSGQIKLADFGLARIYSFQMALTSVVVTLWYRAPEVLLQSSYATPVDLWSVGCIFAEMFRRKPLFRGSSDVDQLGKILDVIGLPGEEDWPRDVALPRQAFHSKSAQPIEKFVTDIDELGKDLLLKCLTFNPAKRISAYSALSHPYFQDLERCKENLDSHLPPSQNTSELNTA
Sequence of CDK6/cyclinD3(h) (P30281 whole entry partner): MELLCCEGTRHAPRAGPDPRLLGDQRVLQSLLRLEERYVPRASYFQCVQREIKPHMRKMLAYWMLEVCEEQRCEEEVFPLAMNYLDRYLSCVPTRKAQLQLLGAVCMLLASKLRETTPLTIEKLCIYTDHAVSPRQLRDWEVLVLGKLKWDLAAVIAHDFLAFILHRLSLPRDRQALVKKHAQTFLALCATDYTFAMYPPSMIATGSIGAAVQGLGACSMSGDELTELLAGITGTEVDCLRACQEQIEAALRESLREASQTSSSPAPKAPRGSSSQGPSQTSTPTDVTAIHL

How did the remaining activity at 10 µM [1, 6] turn out when `COc1ccc2ncnc(Nc3cccc(F)c3)c2c1` [5ay, N-(3-Fluorophenyl)-6-Methoxy-4-Quinazolinamine] was run?
The remaining activity at 10 µM was 87%.

What about the remaining activity at 10 µM [2, 6] of the same molecule?
Its remaining activity at 10 µM is 108%.

What about the remaining activity at 10 µM [3, 6] of the same molecule?
Its remaining activity at 10 µM is 107%.

What about the remaining activity at 10 µM [4, 6] of the same molecule?
The remaining activity at 10 µM was 70%.

What about the remaining activity at 10 µM [5, 6] of the same molecule?
The remaining activity at 10 µM was 80%.

Which results are given for `Fc1ccc(CNc2ncnc3ccc(F)cc23)cc1` [5aa, 6-Fluoro-N-(4-fluorobenzyl)-4-Quinazolinamine]?
remaining activity at 10 µM [1, 7]: 102%; remaining activity at 10 µM [2, 7]: 113%; remaining activity at 10 µM [3, 7]: 106%; remaining activity at 10 µM [4, 7]: 65%; remaining activity at 10 µM [5, 7]: 80%

What does the source list for `Fc1ccc2ncnc(NCCc3ccc(Cl)cc3)c2c1` [5at, N-[2-(4-Chlorophenyl)Ethyl]-6-Fluoro-4-Quinazolinamine]?
remaining activity at 10 µM [1, 8]: 98%; remaining activity at 10 µM [2, 8]: 102%; remaining activity at 10 µM [3, 8]: 98%; remaining activity at 10 µM [4, 8]: 60%; remaining activity at 10 µM [5, 8]: 104%

Which results are given for `Fc1ccc(CCNc2ncnc3ccc(F)cc23)cc1` [5as, 6-Fluoro-N-[2-(4-Fluorophenyl)Ethyl]-4-Quinazolinamine]?
remaining activity at 10 µM [1, 9]: 96%; remaining activity at 10 µM [2, 9]: 99%; remaining activity at 10 µM [3, 9]: 110%; remaining activity at 10 µM [4, 9]: 87%; remaining activity at 10 µM [5, 9]: 87%
